Laboratory results reported in US12252522B2, “Myokines for treating cell proliferative and metabolic diseases and disorders” (Northwestern University, priority 2019, dated 2025).

Legend:
[1] = system: pancreatic ductal carcinoma PDX model; assay: in vivo validation of CPT on pancreatic ductal carcinoma PDX model; details: co-treatment gemcitabine 10 mg/kg + 9-ING-41 40 mg/kg, i.p. 3x a week
cancer cells = assay: live cell PWS (D) and transcriptional heterogeneity of cancer cells surviving chemotherapy; format: cell-based
Text: FIGS. 2A-2K. Four aspects of transcriptional heterogeneity regulation by chromatin D: (a) diversity (the relative dynamic range of expression; HT29 cells, 2445 genes), (b) intercellular heterogeneity, (c) intranetwork heterogeneity, and (d) amplification of changes in expression (ratio of changes in the expression rate of 800 significant genes induced by paclitaxel in A2780 ovarian cancer cells for high- vs. low-D cells). Predictions of a computational transcriptomics (multiscale analysis, MSA) model are shown as blue curves. (e) Chemotherapy leads to the survival of cancer cells with high D (middle-top panel; live cell PWS images of D; arrows: nuclei) and transcriptional (right-top) heterogeneity, while CPT agents (digoxin) decrease both (bottom). Left panels: MSA simulations of chromatin packing show a CPT-induced transition from a network to polymer-like packing. (f) Cells surviving chemotherapy treatment (paclitaxel (PAC); 48 h, A2780) have a larger global transcriptional space (single cell sequencing) while CPT (celecoxib) reduces it. (g) PWS images of HCT116 colon cancer cells after treatment with chemotherapy (oxaliplatin), CPT (celecoxib), and their combination. The addition of a CPT leads to >98% cancer cell death. […] Key: docetaxel (D), paclitaxel (P), oxaliplatin (0), digoxin (D), celecoxib (C), VPA (V), aspirin (A). […]

HT29 = assay: growth of HT29 cells treated with myostatin or metrnl and oxaliplatin; format: cell-based, human; details: for growth of colorectal cancer cell line: HT29, alone; for effect in combination with oxaliplatin: HT29, combination with oxaliplatin
Text: FIGS. 6A-6C. Treatment of colon cancer cells lines with myokines and oxaliplatin. (a) HCT116 cells treated with myokines, oxaplatin, and combination of myokines and oxaplatin. (b) H29 cells treated with oxoplatin (ox), myostatin, and a combination of myostatin and oxaplatin. (c) H29 cells treated with oxoplatin (ox), metrnl, and a combination of metrnl and oxaplatin.
Next, we treated colorectal cancer cell lines HCT116 and HT29 with a myokine fraction and the specific myokines myostain and metrnl either by themselves or in combination with oxaliplatin. […] (See FIG. 6).

[2] = system: HCT116 colon cancer cells; assay: PWS imaging of HCT116 cells after chemotherapy, CPT and their combination; format: cell-based; details: celecoxib (CPT) added to oxaliplatin

Cn1cc(C2=C(c3coc4ccc(F)cc34)C(=O)NC2=O)c2cc3c(cc21)OCO3 [9-ING-41]
tumor volume relative to initial size [1]: < 4 % of the initial size

C[C@H]1O[C@@H](O[C@H]2[C@@H](O)C[C@H](O[C@H]3[C@@H](O)C[C@H](O[C@H]4CC[C@@]5(C)[C@H](CC[C@@H]6[C@@H]5C[C@@H](O)[C@]5(C)[C@@H](C7=CC(=O)OC7)CC[C@]65O)C4)O[C@@H]3C)O[C@@H]2C)C[C@H](O)[C@@H]1O [digoxin]
chromatin packing scaling D (cancer cells): decrease both

myostatin [myostain]
growth of colorectal cancer cell line (HT29): reduced the growth | effect in combination with oxaliplatin (HT29): synergistic effect

Cc1ccc(-c2cc(C(F)(F)F)nn2-c2ccc(S(N)(=O)=O)cc2)cc1 [celecoxib]
cancer cell death [2]: > 98%

B1: metrnl (protein, UniProt Q641Q3 46-311, looked up)
Meteorin-like protein: QYSSDRCSWKGSGLTHEAHRKEVEQVYLRCAAGAVEWMYPTGALIVNLRPNTFSPARHLTVCIRSFTDSSGANIYLEKTGELRLLVPDGDGRPGRVQCFGLEQGGLFVEATPQQDIGRRTTGFQYELVRRHRASDLHELSAPCRPCSDTEVLLAVCTSDFAVRGSIQQVTHEPERQDSAIHLRVSRLYRQKSRVFEPVPEGDGHWQGRVRTLLECGVRPGHGDFLFTGHMHFGEARLGCAPRFKDFQRMYRDAQERGLNPCEVGTD
notes: specific myokine
growth of colorectal cancer cell line (HT29): reduced the growth | effect in combination with oxaliplatin (HT29): synergistic effect
